The source of these data is patent publication US20250332158A1, “COMPOSITION FOR PROMOTING MITOPHAGY ACTIVITY COMPRISING ISOQUINOLINE DERIVATIVE COMPOUND AS ACTIVE INGREDIENT AND USE THEREOF” (ALTMEDICAL CO., LTD., priority 2022, published 2025).

Data set [1] concerns human normal lung cell line BEAS-2B. The data set is described as follows: mitophagy activity by mt-Keima (mitokeyma) fluorescent protein quantification, flow cytometry. To be noted: for mitophagy activity compared to the con group / concentration showing maximum mitophagy activity: BEAS-2B; for mitophagy activity compared to the con group: 20 µM, 24 hours, flow cytometer (FIG. 2A); for concentration showing maximum mitophagy activity: concentration series (FIG. 2B); for times higher mitophagy activity than CD1-012: from concentrations of maximum mitophagy activity. The data set is classed as cell-based. An excerpt: By utilizing these characteristics, mt-Keima can be expressed specifically in mitochondria, and by performing integrated analysis of the fluorescence signals at 458 nm and 561 nm, the fluorescence signal can be analyzed when mitochondria in a neutral environment (pH=7.4-7.8) are converted to an acidic environment (pH=4.5) by lysosomes delivered from mitophagy, allowing for quantitative measurement of mitophagy activity.
Specifically, a mitokeyma fluorescent protein quantification method, which allows for the quantitative measurement of mitophagy activity in living cells, was used. […] After treatment, the activity of mitophagy was measured using a flow cytometer. As a negative control, a control group (Control, con) without compound treatment was used, and as a positive control, CCCP (10 μM), which experimentally induces mitophagy activity, and CD1-012, a precursor of the compound of the present disclosure known to induce mitophagy activity, were used.
(In flow cytometry, cells or beads pass a laser one at a time.)

Data set [2] has the same test system. Nature of the data set: colony forming assay (cytotoxicity). The class given is cell-based. The method, then: A colony forming assay was performed to confirm the cytotoxicity of the novel isoquinoline derivatives of the present disclosure. Specifically, the isoquinoline derivatives were treated to the human normal lung cell line BEAS-2B for 24 hours, followed by culturing for 2 weeks to analyze the colony formed. As controls, a control group (con) that was not treated with anything and a positive control treated with CCCP, which induces mitophagy activity but also causes mitochondrial dysfunction and toxicity, were used.

“Also recorded” adds a separate entry of the source. Read-outs that look alike come from different tables or passages of the source.

As for `CCc1c2[n+](cc3c(OC)c(OC)ccc13)CCc1cc3c(cc1-2)OCO3` [CD1-409], in data set [1], the “mitophagy activity compared to the con group” value is listed as “best mitophagy activity promotion; also recorded: promote the activity of mitophagy”, the “concentration showing maximum mitophagy activity” value is 10 µM and the “times higher mitophagy activity than CD1-012” value stood at 2 times.
On to `Oc1cc2c(cc1O)C1=Cc3ccc(O)c(O)c3CN1CC2` [CD1-367], for which the “mitophagy activity compared to the con group” value in data set [1] is listed as “promote the activity of mitophagy”. In addition, in data set [2] (BEAS-2B, treated 24 hours, cultured 2 weeks (FIG. 4)), the “size and number of colonies (cytotoxicity)” value is “except for CD1-367, did not exhibit cytotoxicity”.
As to `N#CC(C#N)=NNc1cccc(Cl)c1` [CCCP, reference compound], in data set [2], the “size and number of colonies (cytotoxicity)” value was “decrease in both the size and number of colonies”.
For `COc1ccc2c(c1OC)CN1CCc3cc4c(cc3C1=C2)OCO4` [CD1-363], the “mitophagy activity compared to the con group” value in data set [1] is on record as “promote the activity of mitophagy”.
Consider `Oc1cc2c(cc1O)-c1cc3ccc(O)c(O)c3c[n+]1CC2` [CD1-271], for which the “mitophagy activity compared to the con group” value in data set [1] is “promote the activity of mitophagy”.
`C=CCc1c2[n+](cc3c(OC)c(OC)ccc13)CCc1cc3c(cc1-2)OCO3` [CD1-386]: in data set [1], the “mitophagy activity compared to the con group” value is on record as “best mitophagy activity promotion; also recorded: promote the activity of mitophagy”, the “concentration showing maximum mitophagy activity” value came out at 5 µM and the “times higher mitophagy activity than CD1-012” value is on record as 4 times.
Turning to `COc1ccc2c(Cc3ccccc3)c3[n+](cc2c1OC)CCc1cc2c(cc1-3)OCO2` [CD1-404], the “mitophagy activity compared to the con group” value in data set [1] was “promote the activity of mitophagy”.
